Columns and labels:
Mouse GABAa receptor = assay: [3H]-TBOB binding assay, mouse GABAa receptor; conditions: means±S.D., n=3, FIG. 1, read-out: IC50, inhibition of [3H]-TBOB binding
Method: (§1) 100 μl membrane was incubated for 70 minutes at room temperature with 4 nM [^3H]-TBOB, different amounts of candidate inhibitor and buffer B. The total assay buffer volume was 500 μl. After incubation, samples were filtered by glass fiber filter papers and washed with 5 ml ice-cold buffer B 3 times. Radioactivity was measured by liquid scintillation counter. Specific binding was calculated as the difference between the total ^3H bound and nonspecific ^3H bound with 100 μM picrotoxin.

[1] = system: insect GABA receptor (American cockroach CNS membrane microsacs); assay: GABA-activated 36Cl- uptake assay in membrane microsacs; type: biochemical, Periplaneta americana; conditions: for modulation of Cl- uptake: American cockroach membrane microsacs, 1 μM GABA, FIGS. 8-15; for type of modulation of the insect GABA receptor: conclusion from 36Cl- uptake results
Method: Cockroach CNS Membrane Microsacs Preparation: Thoracic and abdominal ganglia were removed from 30 American cockroaches and homogenized in 8.0 ml ice-cold buffer of the following composition (in millimoles per liter): NaBr, 145; KBr, 5.0; MgSO4, 1.0; Ca(NO3)2, 1.0; D-glucose, 10.0; N-2-hydroxyethylpiperazine-N′-2-ethanesulphonic acid (HEPES), 10.0 (adjusted to pH 7.5). The homogenate was centrifuged in 1.0 ml aliquots at 10,000×g for 20 min, and the pellets were re-suspended in buffer, re-centrifuged and finally re-suspended in buffer for assaying GABA-activated ^36Cl— uptake.
Cockroach GABA-activated ^36Cl— Uptake: Aliquots (200 μl) of this microsac preparation were incubated at 30° C. for 3 min after which 150 μl of a solution of ^36Cl— (0.2 μCi ml-l; specific activity 580 μCi mmol^−1) containing 1 μM GABA was added. Candidate monoterpenoids were incubated with the tissue sample for 3 min before addition of the solution containing ^36Cl— and GABA. To stop the influx of 36CL—, 2.0 m1 of ice cold buffer was added (after 10 s) and the solution was rapidly filtered over a glass-fiber filter (Whatman GF/C) followed by a 10-ml wash with ice-cold buffer. Filters, which then contained the microsacs, are placed into scintillation vials, and the scintillation cocktail was added. The vials were counted in the liquid scintillation counter, and the amount of ^36Cl— taken up into the microsacs was measured and calculated on the molar basis.

House Fly GABA receptor = biological target: T1, House Fly GABA receptor (Musca domestica, UniProt Q75NA5); assay: [3H]-TBOB binding assay, house fly GABA receptor; conditions: for modulation of the house fly GABA receptor: based on [3H]-TBOB-house fly GABA receptor binding assay, FIGS. 1-7; for effect on [3H]-TBOB binding activity: house fly GABA receptor, 4 nM [3H]-TBOB
T1 sequence (Q75NA5 30-576): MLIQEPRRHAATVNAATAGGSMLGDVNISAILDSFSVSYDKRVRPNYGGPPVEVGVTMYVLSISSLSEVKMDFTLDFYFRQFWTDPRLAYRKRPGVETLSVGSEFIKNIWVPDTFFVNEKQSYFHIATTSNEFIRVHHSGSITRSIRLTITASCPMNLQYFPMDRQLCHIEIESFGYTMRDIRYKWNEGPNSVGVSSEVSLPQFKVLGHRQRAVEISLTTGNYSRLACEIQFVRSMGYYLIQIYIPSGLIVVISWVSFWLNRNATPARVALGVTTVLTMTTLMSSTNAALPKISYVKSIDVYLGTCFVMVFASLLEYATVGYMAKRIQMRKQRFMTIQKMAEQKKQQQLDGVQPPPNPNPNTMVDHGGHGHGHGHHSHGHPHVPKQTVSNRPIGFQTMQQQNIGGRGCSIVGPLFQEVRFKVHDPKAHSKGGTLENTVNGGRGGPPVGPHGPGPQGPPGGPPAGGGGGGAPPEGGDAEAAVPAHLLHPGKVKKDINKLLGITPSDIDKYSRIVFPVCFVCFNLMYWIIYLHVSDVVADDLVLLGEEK
Method: [^3H]-TBOB Assay. In this study, five monoterpenoids (Pulegone, Thymol, Alpha-terpineol, Linalool and Carvacrol) were investigated to determine their modulation effects on [^3H]TBOB (t-butylbicycloorthobenzoate) binding to housefly GABA (Gamma-aminobutyric acid) receptors.
House fly heads (200) were homogenized in 10 mM tris-HCL buffer (pH 7.5) containing 0.25M sucrose (buffer A) with a glass homogenizer. The homogenate was centrifuged at 1,000×g for 5 minutes. The supernatant was filtered by four layers cheesecloth and centrifuged at 25,000×g for 30 minutes. The supernatant was discarded, and the pellet was homogenized and resuspended in buffer A for 30 minutes. The suspension was centrifuged at 25,000×g for 30 minutes. The final pellet was suspended in 10 mM phosphate buffer (pH 7.5) containing 300 mM NaCL (buffer B) and used directly for the assays.
as §1

Row | Compound | IC50 (Mouse GABAa receptor) [µM] | modulation of Cl- uptake [1] | modulation of the house fly GABA receptor (House Fly GABA receptor) | effect on [3H]-TBOB binding activity (House Fly GABA receptor) | type of modulation of the insect GABA receptor [1]
1 | ClC1=C(Cl)[C@]2(Cl)[C@@H]3[C@@H]4C[C@@H]([C@H]5O[C@@H]45)[C@@H]3[C@@]1(Cl)C2(Cl)Cl [Dieldrin] | 3.78 ± 0.45 |  |  |  | 
2 | CC(C)=C1CC[C@@H](C)CC1=O [Pulegone] |  | modulate Cl— uptake | modulated the house fly GABA receptor | potentiated the binding | 
3 | CC1=CCC(C(C)(C)O)CC1 (stereo not drawn) [alpha-terpineol] |  |  | modulated the house fly GABA receptor | lesser effects | 
4 | Cc1ccc(C(C)C)cc1O [carvacrol] |  | modulate Cl— uptake | modulated the house fly GABA receptor | potentiated the binding | positive modulators
5 | C=CC(C)(O)CCC=C(C)C (stereo not shown) [linalool] |  |  | modulated the house fly GABA receptor | potentiated the binding | 
6 | Cc1ccc(C(C)C)c(O)c1 [thymol] |  | modulate Cl— uptake | modulated the house fly GABA receptor | potentiated the binding | positive modulators

From patent US20100144888A1, “PESTICIDAL METHODS AND COMPOSITIONS FOR MODULATING GABA RECEPTORS” (ECOSMART TECHNOLOGIES, INC., priority 2008, published 2010)
